The source of these data is patent publication US11420958B2, “Aryl and heteroaryl substituted indole compounds” (BRISTOL-MYERS SQUIBB COMPANY, priority 2017, dated 2022).

As a reminder, the IC50 is the concentration at which inhibition is half-maximal. The low end stands for greater potency, the high end for weaker potency.

Type in all cases: cell-based
Assay [1] has as its target human TLR7 (Homo sapiens (Human), UniProt Q9NYK1). Kind of assay: TLR7 inhibition reporter assay (HEK-Blue, SEAP). The following applies: HEK-Blue cells overexpressing human TLR7, gardiquimod 7.5 μM stimulation. Summed up: (§1)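 Percent inhibition of agonist-induced SEAP secretion was scored against DMSO-only and reference-inhibitor controls. Stimulation lasted 22 h at 37 °C following 30 min compound pre-exposure (0.05 nM–50 μM); ligands were gardiquimod 7.5 μM, R848 15.9 μM and ODN2006 5 nM for TLR7, 8 and 9.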
On the technique in general: Reporter assays use an easily measured gene product as a stand-in for the process of interest.

Assay [2] deals with human TLR8 (Homo sapiens (Human), UniProt Q9NR97). The experiment in a line: TLR8 inhibition reporter assay (HEK-Blue, SEAP). The conditions noted are these: HEK-Blue cells overexpressing human TLR8, R848 15.9 μM stimulation. Summed up: as §1
Sequence of human TLR8 (Q9NR97 27-1041): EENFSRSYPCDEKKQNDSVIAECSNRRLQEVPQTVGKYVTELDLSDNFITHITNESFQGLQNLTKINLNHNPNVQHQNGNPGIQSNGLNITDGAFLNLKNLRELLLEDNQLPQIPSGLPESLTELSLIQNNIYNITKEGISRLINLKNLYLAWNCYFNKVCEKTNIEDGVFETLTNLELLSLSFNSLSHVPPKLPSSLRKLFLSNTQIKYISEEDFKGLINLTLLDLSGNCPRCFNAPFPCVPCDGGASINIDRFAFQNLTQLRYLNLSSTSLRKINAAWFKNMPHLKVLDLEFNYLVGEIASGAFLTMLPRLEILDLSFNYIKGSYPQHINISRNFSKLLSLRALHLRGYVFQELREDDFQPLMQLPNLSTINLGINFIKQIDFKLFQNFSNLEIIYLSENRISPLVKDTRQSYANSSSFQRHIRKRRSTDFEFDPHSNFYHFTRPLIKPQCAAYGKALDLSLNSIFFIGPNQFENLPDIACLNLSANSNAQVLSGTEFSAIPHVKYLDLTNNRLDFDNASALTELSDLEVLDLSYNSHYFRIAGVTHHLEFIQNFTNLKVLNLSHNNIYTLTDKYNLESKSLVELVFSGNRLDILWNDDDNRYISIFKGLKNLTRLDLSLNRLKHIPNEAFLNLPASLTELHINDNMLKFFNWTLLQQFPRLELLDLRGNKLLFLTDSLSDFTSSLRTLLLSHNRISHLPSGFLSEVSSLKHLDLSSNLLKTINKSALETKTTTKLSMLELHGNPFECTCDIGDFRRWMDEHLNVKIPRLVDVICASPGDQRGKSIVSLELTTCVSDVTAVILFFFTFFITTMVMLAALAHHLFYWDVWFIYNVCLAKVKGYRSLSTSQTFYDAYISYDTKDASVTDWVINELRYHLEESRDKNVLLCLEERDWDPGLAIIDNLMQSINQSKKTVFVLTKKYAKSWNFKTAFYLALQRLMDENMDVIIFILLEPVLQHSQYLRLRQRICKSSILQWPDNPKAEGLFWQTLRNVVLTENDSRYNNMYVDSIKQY
Assay [3] addresses human TLR9 (Homo sapiens (Human), UniProt Q9NR96). The experiment in a line: TLR9 inhibition reporter assay (HEK-Blue, SEAP). The following applies: HEK-Blue cells overexpressing human TLR9, ODN2006 5 nM stimulation. Summed up:
as §1

Sequence of human TLR7 (Q9NYK1 27-1049): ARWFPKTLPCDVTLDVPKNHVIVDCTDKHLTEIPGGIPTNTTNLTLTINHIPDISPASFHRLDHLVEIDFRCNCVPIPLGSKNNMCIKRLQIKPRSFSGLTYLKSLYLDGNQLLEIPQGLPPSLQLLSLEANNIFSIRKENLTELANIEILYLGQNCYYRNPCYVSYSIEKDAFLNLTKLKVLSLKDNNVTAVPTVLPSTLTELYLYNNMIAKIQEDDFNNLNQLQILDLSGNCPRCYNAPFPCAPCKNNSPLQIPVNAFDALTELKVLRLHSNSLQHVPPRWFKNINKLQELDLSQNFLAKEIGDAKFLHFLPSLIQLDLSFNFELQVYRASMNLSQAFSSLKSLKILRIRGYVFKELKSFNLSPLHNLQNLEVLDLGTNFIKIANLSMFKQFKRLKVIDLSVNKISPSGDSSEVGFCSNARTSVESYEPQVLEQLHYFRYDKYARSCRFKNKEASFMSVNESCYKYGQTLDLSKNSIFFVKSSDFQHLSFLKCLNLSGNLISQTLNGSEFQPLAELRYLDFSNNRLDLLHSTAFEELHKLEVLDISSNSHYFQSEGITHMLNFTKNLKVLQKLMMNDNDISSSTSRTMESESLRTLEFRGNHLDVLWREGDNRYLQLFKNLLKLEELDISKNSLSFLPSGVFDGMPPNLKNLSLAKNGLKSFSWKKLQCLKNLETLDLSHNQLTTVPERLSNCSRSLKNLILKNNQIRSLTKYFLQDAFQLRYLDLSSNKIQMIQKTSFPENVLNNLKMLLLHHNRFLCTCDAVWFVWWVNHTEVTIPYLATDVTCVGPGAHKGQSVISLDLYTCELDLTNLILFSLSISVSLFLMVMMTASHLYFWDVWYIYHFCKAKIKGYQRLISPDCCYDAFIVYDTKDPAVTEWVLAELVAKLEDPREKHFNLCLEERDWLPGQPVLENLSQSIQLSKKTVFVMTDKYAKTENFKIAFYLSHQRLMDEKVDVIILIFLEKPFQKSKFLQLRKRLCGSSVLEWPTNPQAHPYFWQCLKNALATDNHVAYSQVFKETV
Sequence of human TLR9 (Q9NR96 26-1032): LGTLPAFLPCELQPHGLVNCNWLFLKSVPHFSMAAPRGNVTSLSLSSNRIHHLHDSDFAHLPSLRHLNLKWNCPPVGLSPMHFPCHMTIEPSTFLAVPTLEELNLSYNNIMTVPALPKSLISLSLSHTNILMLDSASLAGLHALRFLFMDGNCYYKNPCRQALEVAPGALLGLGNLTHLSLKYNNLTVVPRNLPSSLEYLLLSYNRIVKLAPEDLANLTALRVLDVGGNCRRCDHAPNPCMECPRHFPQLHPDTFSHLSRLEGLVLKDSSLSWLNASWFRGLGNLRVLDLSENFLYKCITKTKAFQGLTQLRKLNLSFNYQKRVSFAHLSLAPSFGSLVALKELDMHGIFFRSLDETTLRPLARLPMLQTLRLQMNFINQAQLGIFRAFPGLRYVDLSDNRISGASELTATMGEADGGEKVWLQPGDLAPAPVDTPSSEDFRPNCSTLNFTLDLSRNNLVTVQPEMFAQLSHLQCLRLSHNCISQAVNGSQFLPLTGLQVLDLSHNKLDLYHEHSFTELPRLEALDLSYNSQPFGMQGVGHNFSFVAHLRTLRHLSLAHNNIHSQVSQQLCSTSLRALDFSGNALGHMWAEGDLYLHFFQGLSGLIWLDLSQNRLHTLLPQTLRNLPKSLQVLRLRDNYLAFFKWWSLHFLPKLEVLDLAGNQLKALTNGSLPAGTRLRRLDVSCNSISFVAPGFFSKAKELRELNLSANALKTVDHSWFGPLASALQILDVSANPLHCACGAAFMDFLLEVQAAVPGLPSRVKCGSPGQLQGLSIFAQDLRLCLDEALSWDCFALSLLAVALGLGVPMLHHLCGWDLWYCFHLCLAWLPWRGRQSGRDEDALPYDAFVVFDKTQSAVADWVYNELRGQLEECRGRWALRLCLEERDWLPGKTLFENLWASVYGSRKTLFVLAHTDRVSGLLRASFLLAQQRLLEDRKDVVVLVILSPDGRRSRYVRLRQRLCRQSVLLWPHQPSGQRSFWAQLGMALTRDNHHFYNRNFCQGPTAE

On to `CC(C)c1c(-c2ccnc3[nH]ncc23)[nH]c2ccc(-c3nnc(CNCC(C)(C)C)o3)cc12` [Example 149, N-((5-(3-isopropyl-2-(1H-pyrazolo[3,4-b]pyridin-4-yl)-1H-indol-5-yl)-1,3,4-oxadiazol-2-yl)methyl)-2,2-dimethylpropan-1-amine], for which the 50% inhibitory concentration (IC50) in assay [1] was 7280 nM; in assay [2] it was 50 nM; in assay [3], over 50000 nM.

As for `CC(C)c1c(-c2ccnc3[nH]ncc23)[nH]c2ccc(-c3nnc(CNCC#N)o3)cc12` [Example 150, 2-(((5-(3-isopropyl-2-(1H-pyrazolo[3,4-b]pyridin-4-yl)-1H-indol-5-yl)-1,3,4-oxadiazol-2-yl)methyl)amino)acetonitrile], the values for the IC50 in assay [1], in assay [2] and in assay [3] were 2240 nM, 378 nM and over 50000 nM, respectively.

Turning to `CC(C)c1c(-c2ccnc3[nH]ncc23)[nH]c2ccc(-c3nnc(CNC45CC6CC(CC(C6)C4)C5)o3)cc12` [Example 151, N-((5-(3-isopropyl-2-(1H-pyrazolo[3,4-b]pyridin-4-yl)-1H-indol-5-yl)-1,3,4-oxadiazol-2-yl)methyl)adamantan-1-amine], the concentration for half-maximal inhibition (IC50) in assay [1] was 5340 nM; in assay [2], 18 nM; in assay [3], over 50000 nM.

Consider `CC(C)c1c(-c2ccnc3[nH]ncc23)[nH]c2ccc(-c3nnc(CN4CCOCC4)o3)cc12` [Example 152, 4-((5-(3-isopropyl-2-(1H-pyrazolo[3,4-b]pyridin-4-yl)-1H-indol-5-yl)-1,3,4-oxadiazol-2-yl)methyl)morpholine], for which the IC50 in assay [1] was 2330 nM; in assay [2] it was 471 nM; in assay [3], over 50000 nM.

For `CC(=O)N1CCN(Cc2nnc(-c3ccc4[nH]c(-c5ccnc6[nH]ncc56)c(C(C)C)c4c3)o2)CC1` [Example 153, 1-(4-((5-(3-isopropyl-2-(1H-pyrazolo[3,4-b]pyridin-4-yl)-1H-indol-5-yl)-1,3,4-oxadiazol-2-yl)methyl)piperazin-1-yl)ethan-1-one], the IC50 in assay [1] is 1570 nM; in assay [2] it was 138 nM; in assay [3] it was over 50000 nM.

With `CC(C)c1c(-c2ccnc3[nH]ncc23)[nH]c2ccc(-c3nnc(CN(C)C(C)C)o3)cc12` [Example 154, N-((5-(3-isopropyl-2-(1H-pyrazolo[3,4-b]pyridin-4-yl)-1H-indol-5-yl)-1,3,4-oxadiazol-2-yl)methyl)-N-methylpropan-2-amine], the concentration for half-maximal inhibition (IC50) is 1410 nM in assay [1], 31 nM in assay [2] and over 50000 nM in assay [3].

In the case of `CC(=O)N1CCCN(Cc2nnc(-c3ccc4[nH]c(-c5ccnc6[nH]ncc56)c(C(C)C)c4c3)o2)CC1` [Example 155, 1-(4-((5-(3-isopropyl-2-(1H-pyrazolo[3,4-b]pyridin-4-yl)-1H-indol-5-yl)-1,3,4-oxadiazol-2-yl)methyl)-1,4-diazepan-1-yl)ethan-1-one], the IC50 was 1420 nM in assay [1], 127 nM in assay [2] and over 50000 nM in assay [3].

For `CC(C)c1c(-c2ccnc3[nH]ncc23)[nH]c2ccc(-c3nnc(CN4CCNC(=O)C4)o3)cc12` [Example 156, 4-((5-(3-isopropyl-2-(1H-pyrazolo[3,4-b]pyridin-4-yl)-1H-indol-5-yl)-1,3,4-oxadiazol-2-yl)methyl)piperazin-2-one], the IC50 is 1410 nM in assay [1], 212 nM in assay [2] and over 50000 nM in assay [3].

Regarding `CC(C)c1c(-c2ccnc3[nH]ncc23)[nH]c2ccc(-c3nnc(CN4CC[C@@H](N(C)C)C4)o3)cc12` [Example 157, (R)-1-((5-(3-isopropyl-2-(1H-pyrazolo[3,4-b]pyridin-4-yl)-1H-indol-5-yl)-1,3,4-oxadiazol-2-yl)methyl)-N,N-dimethylpyrrolidin-3-amine], the 50% inhibitory concentration (IC50) in assay [1] worked out at 314 nM; in assay [2], 18 nM; in assay [3] it was 4480 nM.

Consider `CC(C)c1c(-c2ccnc3[nH]ncc23)[nH]c2ccc(-c3nnc(CN4CCC[C@H]4C(N)=O)o3)cc12` [Example 158, (S)-1-((5-(3-isopropyl-2-(1H-pyrazolo[3,4-b]pyridin-4-yl)-1H-indol-5-yl)-1,3,4-oxadiazol-2-yl)methyl)pyrrolidine-2-carboxamide], for which the results for the IC50 in assay [1], in assay [2] and in assay [3] were 1380 nM, 174 nM and over 50000 nM, respectively.

Take `Cc1cc(-c2[nH]c3ccc(-c4nnc(C5CCCN(C)C5)o4)cc3c2C(C)C)ccn1` (stereo not drawn) [Example 159, 2-(3-isopropyl-2-(2-methylpyridin-4-yl)-1H-indol-5-yl)-5-(1-methylpiperidin-3-yl)-1,3,4-oxadiazole]: the IC50 in assay [1] was 24 nM; in assay [2] it was 1.8 nM; in assay [3], 1230 nM.

On to `CC(C)c1c(-c2ccnc(N)c2)[nH]c2ccc(-c3nc(C(=O)NC4CCN(C(C)C)CC4)co3)cc12` [Example 160, 2-(2-(2-aminopyridin-4-yl)-3-isopropyl-1H-indol-5-yl)-N-(1-isopropylpiperidin-4-yl)oxazole-4-carboxamide], for which the IC50 came to 120 nM in assay [1], 23 nM in assay [2] and 3930 nM in assay [3].

Turning to `COc1ccc(-c2[nH]c3ccc(-c4ccc5c(c4)NCCC5)cc3c2C(C)C)cc1OC` [Example 161, 7-(2-(3,4-dimethoxyphenyl)-3-isopropyl-1H-indol-5-yl)-1,2,3,4-tetrahydroquinoline], the half-inhibitory concentration (IC50) in assay [1] was 2930 nM; in assay [2] it was 1980 nM; in assay [3], 5000 nM.

Take `CC(C)c1c(-c2ccnc3[nH]ncc23)[nH]c2ccc(-c3nnc(C4CCCN(C)C4)o3)cc12` (stereo not drawn) [Example 162, 2-(3-isopropyl-2-(1H-pyrazolo[3,4-b]pyridin-4-yl)-1H-indol-5-yl)-5-(1-methylpiperidin-3-yl)-1,3,4-oxadiazole]: the half-inhibitory concentration (IC50) is 52 nM in assay [1], 1.7 nM in assay [2] and 1380 nM in assay [3].

Turning to `Cc1cc(-c2[nH]c3ccc(-c4nnc(C5CCN(Cc6ccccc6)CC5)[nH]4)cc3c2C(C)C)ccn1` [Example 163, 5-(5-(1-benzylpiperidin-4-yl)-4H-1,2,4-triazol-3-yl)-3-isopropyl-2-(2-methylpyridin-4-yl)-1H-indole], the IC50 in assay [1] came out at 33 nM; in assay [2] it was 8.6 nM; in assay [3] it was 690 nM.

`Cc1cc(-c2[nH]c3ccc(-c4nnc(C5CCCNC5)[nH]4)cc3c2C(C)C)ccn1` (stereo not drawn) [Example 164, 3-isopropyl-2-(2-methylpyridin-4-yl)-5-(5-(piperidin-3-yl)-4H-1,2,4-triazol-3-yl)-1H-indole]: the results for the IC50 in assay [1], in assay [2] and in assay [3] were 45 nM, 27 nM and 10400 nM, respectively.

Regarding `COc1ccc(-c2[nH]c3ccc(-c4ncc[nH]4)cc3c2C(C)C)cc1OC` [Example 165, 2-(3,4-dimethoxyphenyl)-5-(1H-imidazol-2-yl)-3-isopropyl-1H-indole], the IC50 in assay [1] turned out to be 93 nM; in assay [2], 7.3 nM; in assay [3], 6690 nM.

With `CC(C)c1c(-c2ccnc(N)c2)[nH]c2ccc(-c3nnc(C(=O)N(C)C)o3)cc12` [Example 166, 5-(2-(2-aminopyridin-4-yl)-3-isopropyl-H-indol-5-yl)-N,N-dimethyl-1,3,4-oxadiazole-2-carboxamide], the IC50 in assay [1] worked out at 284 nM; in assay [2], 47 nM; in assay [3] it was 29500 nM.

As for `CC(C)c1c(-c2ccnc3[nH]ncc23)[nH]c2ccc(-c3nnc(C4CCCN(C)C4)o3)cc12` (stereo not drawn) [Example 167, 2-(3-isopropyl-2-(1H-pyrazolo[3,4-b]pyridin-4-yl)-1H-indol-5-yl)-5-(1-methylpiperidin-3-yl)-1,3,4-oxadiazole], the IC50 was determined as 66 nM in assay [1], 3.2 nM in assay [2] and 653 nM in assay [3].

Regarding `CC(C)c1c(-c2ccnc3[nH]ncc23)[nH]c2ccc(-c3nnc(C4CCCN(C)C4)o3)cc12` (stereo not drawn) [Example 168, 2-(3-isopropyl-2-(1H-pyrazolo[3,4-b]pyridin-4-yl)-1H-indol-5-yl)-5-(1-methylpiperidin-3-yl)-1,3,4-oxadiazole], the IC50 in assay [1] worked out at 81 nM; in assay [2], 1.9 nM; in assay [3], 1080 nM.

Turning to `Cc1cc(-c2[nH]c3ccc(-c4nnc(C5CCCN(C)C5)o4)cc3c2C(C)C)ccn1` (stereo not drawn) [Example 169, 2-(3-isopropyl-2-(2-methylpyridin-4-yl)-1H-indol-5-yl)-5-(1-methylpiperidin-3-yl)-1,3,4-oxadiazole], the IC50 in assay [1] came out at 27 nM; in assay [2], 1.8 nM; in assay [3], 564 nM.

As to `Cc1cc(-c2[nH]c3ccc(-c4nnc(C5CCCN(C)C5)o4)cc3c2C(C)C)ccn1` (stereo not drawn) [Example 170, 2-(3-isopropyl-2-(2-methylpyridin-4-yl)-1H-indol-5-yl)-5-(1-methylpiperidin-3-yl)-1,3,4-oxadiazole], the results for the IC50 in assay [1], in assay [2] and in assay [3] were 11 nM, 0.6 nM and 660 nM, respectively.

As to `Cc1cc(-c2[nH]c3ccc(-c4nccs4)cc3c2C(C)C)ccn1` [Example 171, 2-(3-isopropyl-2-(2-methylpyridin-4-yl)-1H-indol-5-yl)thiazole], the values for the 50% inhibitory concentration (IC50) in assay [1], in assay [2] and in assay [3] were 159 nM, 19 nM and over 50000 nM, respectively.

Consider `Cc1cc(-c2[nH]c3ccc(-c4nc(C(=O)N5CC6CNCC6C5)co4)cc3c2C(C)C)ccn1` (stereo not drawn) [Example 172, (hexahydropyrrolo[3,4-c]pyrrol-2(1H)-yl)(2-(3-isopropyl-2-(2-methylpyridin-4-yl)-1H-indol-5-yl)oxazol-4-yl)methanone], for which the IC50 is 49 nM in assay [1], 2.3 nM in assay [2] and 2150 nM in assay [3].
